Experimental data: US20020182587A1, “Methods and compositions for the treatment and prevention of smooth muscle cell proliferation” (priority 2001, published 2002)

Experiments:
human aortic SMC = assay: (3H)thymidine DNA synthesis / proliferation of sub-confluent SMC; type: cell-based; conditions: purified perlecan added to 10% serum-containing medium, 24 h
Method: Smooth muscle cells reach quiescence during serum starvation resulting in a blockade of DNA synthesis. […] The cells used in this Example and the other examples herein were human aortic SMC, grown in basal medium supplemented with growth factors, bFGF and epidermal growth factor (EGF) (Clonetics, San Diego, Calif.).
The addition of perlecan to serum-containing medium inhibited SMC growth by 70% (FIG. 2). Sub-confluent SMC (40-50% confluence) were incubated in serum-free medium or 10% serum-containing medium with or without purified perlecan for 24 h. DNA synthesis was then determined by incubating cells for another 5 h in medium containing (^3H)thymidine. TCA precipitable (DNA) thymidine counts were determined and expressed as percentage of DNA synthesis in cells grown in 10%FBS.
Perlecan, induced in serum-free conditions, was required for the blockade of DNA synthesis observed in serum-free conditions. The anti-perlecan antibody of Example I was used to block perlecan. Sub-confluent levels of SMC (40-50% confluence) were incubated in serum-free medium containing 0, 5, 10 and 20 μg of mouse IgG or anti-perlecan IgG for 24 hours. DNA synthesis was then determined by incubating cells for another 5 hours in medium containing (^3H)thymidine. TCA precipitable (DNA) (^3H)thymidine counts were determined and expressed as percentage of DNA synthesis in cells grown in 10% FBS. […]

[1] = test system: neointima formation following balloon catheter-induced injury of the common carotid arteries; assay: Neointima formation after balloon catheter-induced injury of the common carotid arteries; type: in vivo, male Wistar rats
Method: Two of test compounds discovered using the methods of the present invention, particularly shown in Example VI, compositions RUS 3052 and RUS 3108, were evaluated for efficacy in the reduction of neointima formation following balloon catheter-induced injury of the common carotid arteries of male Wistar rats. Thirty-two rats were divided into groups of eight animals per group: two test compound groups and two control groups. The two control groups were the positive control, 5 mg/kg probucol, and the negative control, the vehicle for the test compositions and the positive control probucol. […] The vehicle solution was 10% DMSO, 10% cremophor, 20% propylene glycol in water for injection. Test compositions RUS 3052 and RUS 3108 were initially administered at 5 mg/kg up to and including the day of surgery. Starting the day after surgery, until the end of the study, the dosage of all compositions was lowered to 1 mg/kg. The test compositions were prepared by combining 5 mg of the test compound or control with 100 μl DMSO, 100 μl cremophor EL, and 200 μl propylene glycol with intermittent mixing using a cyclomixer. Water for injection was added in 100 μl aliquots to give a final volume of 1 ml.
The test compositions and controls were administered daily by intraperitoneal injection starting 72 hours prior to the surgical procedure and continued until necropsy, 14 days after the procedure. One animal from each of the four groups underwent the surgical procedure each day using a #2F Fogarty embolectomy catheter. An embolectomy catheter was introduced into the right external carotid artery and retrogradely passed to the aortic arch through the common carotid artery. The balloon was inflated with sterile saline and then pulled to the common carotid-external carotid bifurcation. […]
Fourteen days post-surgery, the animals of Example VII were euthanized and the damaged right carotid arteries were collected, sectioned and stained with modified elastin-trichrome, and then analyzed for neointima formation that was quantified by histomorphometric analysis. […]

Row | Compound | inhibition of SMC growth (DNA synthesis, percentage of cells grown in 10% FBS) (human aortic SMC) [%] | IA/MA Average ± STD (n), Based on Section Averages ([1]; rat, i.p. daily, 5 mg/kg up to surgery then 1 mg/kg, 14 days post-surgery, all sections within group) | IA/MA Average ± STD (n), Based on Animal Averages ([1]; rat, i.p. daily, 5 mg/kg up to surgery then 1 mg/kg, 14 days post-surgery, sections with IA/MA > 0.0915) | reduction of neointima formation in comparison to the negative control group ([1]; significance set at p<0.20)
1 | perlecan | 70 |  |  | 
2 | CC(C)(Sc1cc(C(C)(C)C)c(O)c(C(C)(C)C)c1)Sc1cc(C(C)(C)C)c(O)c(C(C)(C)C)c1 [Probucol, probucol] |  | 0.71 ± 0.30 (9) | 0.65 ± 0.25 (3) | effective in significantly reducing neointima formation
